These results are taken from patent US20260216250A1, “Compositions and Methods for Treating a Neurologic Disease Using Dopaminergic Neurons with Enhanced Anti-inflammatory Activity” (Kenai Therapeutics Inc., priority 2023, published 2026).

One assay concerns iPS cells. Briefly: Differentiation of iPS cells into FOXA2+/LMX1+ cells or dopamine neurons. Type of assay: cell-based, human. The note with it: increased concentrations, e.g. 2 μM as compared to 0.2 μM. The source says:
Disclosed is an in vitro method for preparing a cell composition comprising modified human cells that express both forkhead box protein A2 (FOXA2) and LIM homeobox transcription factor 1 (LMX1) (FOXA2^+/LMX1^+ cells) comprising culturing modified human pluripotent cells in the presence of the following signaling modulators: (a) a single inhibitor of Small Mothers Against Decapentaplegic (SMAD) signaling, (b) at least one activator of Sonic hedgehog (SHH) signaling, and (c) at least one activator of wingless (Wnt) signaling; and culturing said cells in the presence of said modulators for a period of time sufficient to provide a cell composition comprising said FOXA2^+/LMX1^+ cells. In some preferred embodiments, the LMX1 is LIM homeobox transcription factor 1 alpha (LMX1A). In some embodiments, the inhibitor of SMAD signaling is a BMP inhibitor such as, […]., at a concentration of from about 0.2 μM to about 4 μM, more preferably greater than 0.2 μM to about 4 μM, about 1 μM, 2 μM, 3 μM, 4 μM, or any range derivable therein), dorsomorphin, DMH-1, or noggin. […] In some embodiments, the BMP inhibitor is LDN-193189. The SMAD signaling inhibitor may be a TGFβ inhibitor (a TGFβ signaling pathway inhibitor) such as, for example, SB431542 (e.g., SB431542 present at a concentration of about 5-100, 20-60, 30-50 μM, or about 40 μM). […]

Another assay deals with Ago (Homo sapiens, UniProt Q9UKV8). The note with it: cited from earlier work.
Sequence of Ago (Q9UKV8 whole entry): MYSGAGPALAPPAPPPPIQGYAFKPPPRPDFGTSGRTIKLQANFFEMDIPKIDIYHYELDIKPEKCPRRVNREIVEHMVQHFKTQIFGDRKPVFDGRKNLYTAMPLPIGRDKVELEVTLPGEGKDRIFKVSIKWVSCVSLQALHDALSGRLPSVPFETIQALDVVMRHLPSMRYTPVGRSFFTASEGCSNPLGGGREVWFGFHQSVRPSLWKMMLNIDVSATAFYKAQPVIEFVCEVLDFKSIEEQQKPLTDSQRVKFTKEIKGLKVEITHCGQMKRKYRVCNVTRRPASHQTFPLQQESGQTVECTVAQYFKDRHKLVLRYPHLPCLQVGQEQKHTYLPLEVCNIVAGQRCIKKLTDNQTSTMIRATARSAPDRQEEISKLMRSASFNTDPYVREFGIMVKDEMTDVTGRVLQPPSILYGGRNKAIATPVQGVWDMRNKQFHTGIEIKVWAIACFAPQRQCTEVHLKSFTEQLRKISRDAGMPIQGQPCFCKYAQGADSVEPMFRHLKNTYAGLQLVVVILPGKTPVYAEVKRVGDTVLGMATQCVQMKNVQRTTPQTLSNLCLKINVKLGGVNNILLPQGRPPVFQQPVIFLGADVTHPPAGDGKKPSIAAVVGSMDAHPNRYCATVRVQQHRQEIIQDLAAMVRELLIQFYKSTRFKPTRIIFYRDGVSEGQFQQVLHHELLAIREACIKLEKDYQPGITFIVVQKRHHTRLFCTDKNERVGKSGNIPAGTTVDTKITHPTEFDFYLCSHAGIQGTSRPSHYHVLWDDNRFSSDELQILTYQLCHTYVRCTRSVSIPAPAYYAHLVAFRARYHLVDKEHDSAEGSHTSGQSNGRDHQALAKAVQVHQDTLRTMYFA
For another assay, the system named is rodent GSK3β homologs. The following applies: cited from earlier work.

Consider `c1ccc2c(-c3cnn4cc(-c5ccc(N6CCNCC6)cc5)cnc34)ccnc2c1` [LDN-193189, 4-(6-(4-(piperazin-1-yl)phenyl)pyrazolo[1,5-a]pyrimidin-3-yl) quinoline], for which the “differentiation of iPS cells into FOXA2+/LMX1+ cells or dopamine neurons” value in the assay on iPS cells is recorded as “improved differentiation”.

With UUAAUGCUAAUCGUGAUAGGGGUU [miR-155-5p], the “Ago binding affinity of 5′ terminal UMP relative to the CMP nucleotide on the 5′ terminus of the miR-155-3p strand” value at Ago is on record as “approximately 20 times”. Take `Cc1c[nH]c(-c2cnc(NCCNc3ccc(C#N)cn3)nc2-c2ccc(Cl)cc2Cl)n1` [CHIR99021, 6-(2-(4-(2,4-dichlorophenyl)-5-(4-methyl-1H-imidazol-2-yl)pyrimidin-2-ylamino)ethylamino) nicotinonitrile]: the “IC50 values against rodent GSK3β homologs” value in the assay with rodent GSK3β homologs is listed as “nanomolar”.
